Data reported in PMC6711994 (Scientific Reports, 2019).

How the values were obtained:
lsBSH = biological target: T1, lsBSH (Ligilactobacillus salivarius, UniProt J7H3P9); experiment: X-ray crystal structure, […] Å, crystal soaking; type: binding; details: CA formed from soaked GCA; Cys2 oxidised (sulfonic form); active site of chains B, C, D, E, G and H
T1 construct: recombinant from E. coli JL885 (pBSH vector), purified; initiator Met removed, N-terminal nucleophile Cys2; homotetramer; Cys2 oxidised (sulfonic, OCS) in the crystal
T1 sequence (J7H3P9 entry or part of it): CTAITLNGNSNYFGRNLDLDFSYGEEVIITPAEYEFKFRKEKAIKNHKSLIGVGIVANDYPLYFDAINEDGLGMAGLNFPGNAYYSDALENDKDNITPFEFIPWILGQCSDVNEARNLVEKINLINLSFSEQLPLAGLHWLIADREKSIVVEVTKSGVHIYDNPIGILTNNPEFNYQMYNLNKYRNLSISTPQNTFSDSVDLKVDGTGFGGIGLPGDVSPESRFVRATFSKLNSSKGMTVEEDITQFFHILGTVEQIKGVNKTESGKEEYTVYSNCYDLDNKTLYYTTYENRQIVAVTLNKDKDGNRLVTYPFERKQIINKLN

[1] = biological target: bile salt hydrolase from Lactobacillus salivarius (Lactobacillus salivarius NRRL B-30514); experiment: crystal structure; apo lsBSH crystals (20% PEG 3,350, 0.2 M KH2PO4 pH 4.8, 20 °C) soaked with GCA for 4 h; space group P21; two tetramers in one asymmetric unit

| stoichiometry N [1] | Compound | X-ray crystal structure, 2.10 Å, crystal soaking (lsBSH) |
| --- | --- | --- |
| – | C[C@H](CCC(=O)O)[C@H]1CC[C@H]2[C@@H]3[C@H](O)C[C@@H]4C[C@H](O)CC[C@]4(C)[C@H]3C[C@H](O)[C@]12C [CA, cholic acid] | The lsBSH monomers were obtained bound to substrate GCA or product CA |
| 4 | bile salt hydrolase from Lactobacillus salivarius (enzyme) | – |
